Results taken from patent US10005774B2, “Syk inhibitors” (Gilead Sciences, Inc., priority 2013, dated 2018).
Read-outs that look alike come from different tables or passages of the source.

Biological target: Syk (Homo sapiens, UniProt P43405)
Experiment: High Throughput Syk Biochemical Assay (KinEASE TR-FRET)
Conditions: 20 μM ATP, 1 μM biotinylated peptide, 0.015 nM Syk, 30 min at room temperature
Experimental: High Throughput Syk Biochemical Assay
Syk activity was measured using KinEASE (Cisbio), a time-resolved fluorescence resonance energy transfer (TR-FRET) immunoassay. In this assay. Syk-catalyzes the phosporylation of a XL665-labeled peptide substrate. Europium conjugated phospho-tyrosine specific antibody binds the resulting phosphorylated peptide. Formation of phosphorylated peptide is quantified by TR-FRET with Europium as the donor and XL665 the acceptor in a 2-step endpoint assay. In brief, test compounds serially diluted in DMSO were delivered into Corning white, low volume, non-binding 384 well plates using the Echo 550 acoustic liquid dispenser (Labcyte®). Syk enzyme and substrates were dispensed into assay plates using a Multi-Flo (Bio-Tek Instruments). […] Percent inhibition was calculated as follows: % Inhibition=100×(RatioSample−Ratio0% Inhibition)/(Ratio100% Inhibition−Ratio0% Inhibition)

[1] = table 'ALL NEW COMPOUNDS IN 2014', read-out: Syk IC50

Row | SMILES | IC50 (TABLE D, read-out: IC50) [nM] | IC50 [1] [nM]
1 | COc1cc(-c2cc3ncn(C)c3c(O[C@H](C)[C@H]3CNC(=O)C3)n2)ccc1F [(R)-4-((R)-1-(6-(4-fluoro-3-methoxyphenyl)-3-methyl-3H-imidazo[4,5-c]pyridin-4-yloxy)ethyl)pyrrolidin-2-one] | 39.5 | 
2 | C[C@@H](Oc1nc(-c2cnn(CC(F)F)c2)cc2ncn(C(F)F)c12)[C@H]1CNC(=O)C1 [(R)-4-((R)-1-(6-(1-(2,2-difluoroethyl)-1H-pyrazol-4-yl)-3-(difluoromethyl)-3H-imidazo[4,5-c]pyridin-4-yloxy)ethyl)pyrrolidin-2-one] | 3.31 | 
3 | C=CC[C@@H](Oc1nc(-c2cnn(C(C)(C)C)c2)cc2ncn(C)c12)[C@H]1CNC(=O)C1 | 18.9 | 
4 | C[C@@H](Oc1nc(-c2ccc3c(c2)NC(=O)C32CCN(S(C)(=O)=O)CC2)cc2ncn(C3CC3)c12)[C@H]1CNC(=O)C1 [6-(3-cyclopropyl-4-((R)-1-((R)-5-oxopyrrolidin-3-yl)ethoxy)-3H-imidazo[4,5-c]pyridin-6-yl)-1′-(methylsulfonyl)spiro[indoline-3,4′-piperidin]-2-one] |  | 1.08
5 | COc1ccc(-c2cc3ncn(C4CCC4)c3c(O[C@H](C)[C@H]3CNC(=O)C3)n2)cc1OC [(R)-4-((R)-1-(3-cyclobutyl-6-(3,4-dimethoxyphenyl)-3H-imidazo[4,5-c]pyridin-4-yloxy)ethyl)pyrrolidin-2-one] | 23.5 | 
6 | C[C@@H](Oc1nc(-c2ccc(C#N)cc2)cc2ncn(C)c12)[C@H]1CNC(=O)C1 [4-(3-methyl-4-((R)-1-((R)-5-oxopyrrolidin-3-yl)ethoxy)-3H-imidazo[4,5-c]pyridin-6-yl)benzonitrile] | 28.4 | 
7 | C[C@@H](Oc1nc(-c2cnn(C3COC3)c2)cc2ncn(C3CC3)c12)[C@H]1CNC(=O)C1 |  | 4.65
8 | C[C@@H](Oc1nc(-c2ccc(N3CC4CC(C3)N4)cc2)cc2ncn(C3CC3)c12)[C@H]1CNC(=O)C1 [(4R)-4-((1R)-1-((6-(4-(3,6-diazabicyclo[3.1.1]heptan-3-yl)phenyl)-3-cyclopropyl-3H-imidazo[4,5-c]pyridin-4-yl)oxy)ethyl)pyrrolidin-2-one] |  | 2.29
9 | COc1ccc(-c2cc3ncn(C)c3c(O[C@H](C)[C@H]3CNC(=O)C3)n2)cn1 [(R)-4-((R)-1-(6-(6-methoxypyridin-3-yl)-3-methyl-3H-imidazo[4,5-c]pyridin-4-yloxy)ethyl)pyrrolidin-2-one] | 71.7 | 
10 | Cc1nnc(-c2cc(O[C@H](C)[C@H]3CNC(=O)C3)c3c(c2)ncn3C2CC2)s1 [(R)-4-((R)-1-((1-cyclopropyl-5-(5-methyl-1,3,4-thiadiazol-2-yl)-1H-benzo[d]imidazol-7-yl)oxy)ethyl)pyrrolidin-2-one] |  | 5.45
11 | C[C@@H](Oc1cc(-c2ccc3c(n2)NCCO3)cc2ncn(C3CC3)c12)[C@H]1CNC(=O)C1 [(R)-4-((R)-1-((1-cyclopropyl-5-(3,4-dihydro-2H-pyrido[3,2-b][1,4]oxazin-6-yl)-1H-benzo[d]imidazol-7-yl)oxy)ethyl)pyrrolidin-2-one] |  | 4.76
12 | C[C@@H](Oc1nc(-c2cnn(C3COC3)c2)cc2ncn(C)c12)[C@H]1CNC(=O)C1 [(R)-4-((R)-1-(3-methyl-6-(1-(oxetan-3-yl)-1H-pyrazol-4-yl)-3H-imidazo[4,5-c]pyridin-4-yloxy)ethyl)pyrrolidin-2-one] | 23.5 | 
13 | C[C@@H](Oc1nc(-c2ccc3c(c2)OCCN3C)cc2ncn(C)c12)[C@H]1CNC(=O)C1 [(R)-4-((R)-1-(3-methyl-6-(4-methyl-3,4-dihydro-2H-benzo[b][1,4]oxazin-7-yl)-3H-imidazo[4,5-c]pyridin-4-yloxy)ethyl)pyrrolidin-2-one] | 8.93 | 
14 | Cc1cc(-c2cc3ncn(C)c3c(O[C@H](C)[C@H]3CNC(=O)C3)n2)ccc1N(C)C [(R)-4-((R)-1-(6-(4-(dimethylamino)-3-methylphenyl)-3-methyl-3H-imidazo[4,5-c]pyridin-4-yloxy)ethyl)pyrrolidin-2-one] | 5.31 | 
15 | C[C@@H](Oc1nc(-c2ccc(N3CC4CC(C3)N4C3COC3)cc2)cc2ncn(C3CC3)c12)[C@H]1CNC(=O)C1 [(4R)-4-((1R)-1-((3-cyclopropyl-6-(4-(6-(oxetan-3-yl)-3,6-diazabicyclo[3.1.1]heptan-3-yl)phenyl)-3H-imidazo[4,5-c]pyridin-4-yl)oxy)ethyl)pyrrolidin-2-one] |  | 2.69
16 | C[C@@H](Oc1cc(-c2ccc(N3CCC(C4COC4)CC3)cn2)cc2ncn(C3CC3)c12)[C@H]1CNC(=O)C1 [(R)-4-((R)-1-((1-cyclopropyl-5-(5-(4-(oxetan-3-yl)piperidin-1-yl)pyridin-2-yl)-1H-benzo[d]imidazol-7-yl)oxy)ethyl)pyrrolidin-2-one] |  | 4.65

The next lines start with the values.

Row | IC50 (TABLE D, read-out: IC50) [nM] | IC50 [1] [nM] | SMILES
17 | 10.5 |  | Cc1nn(C)c2ccc(-c3cc4ncn(C)c4c(O[C@H](C)[C@H]4CNC(=O)C4)n3)cc12 [(R)-4-((R)-1-((6-(1,3-dimethyl-1H-indazol-5-yl)-3-methyl-3H-imidazo[4,5-c]pyridin-4-yl)oxy)ethyl)pyrrolidin-2-one]
18 | 85.1 |  | COc1cc(-c2cc(O[C@H](C)[C@H]3CNC(=O)C3)c3ccnn3c2)cc(OC)c1OC [(R)-4-((R)-1-((6-(3,4,5-trimethoxyphenyl)pyrazolo[1,5-a]pyridin-4-yl)oxy)ethyl)pyrrolidin-2-one]
19 | 22.2 |  | Cc1nc2cc(-c3cnn(C(C)(C)C)c3)cc(O[C@H](C)[C@H]3CNC(=O)C3)c2s1 (stereo in doubt) [(R)-4-((R)-1-((5-(1-(tert-butyl)-1H-pyrazol-4-yl)-2-methylbenzo[d]thiazol-7-yl)oxy)ethyl)pyrrolidin-2-one]
20 |  | 1.73 | Cc1cnc(-c2cc(O[C@H](C)[C@H]3CNC(=O)C3)c3c(c2)ncn3C2CC2)s1 [(R)-4-((R)-1-((1-cyclopropyl-5-(5-methylthiazol-2-yl)-1H-benzo[d]imidazol-7-yl)oxy)ethyl)pyrrolidin-2-one]
21 | 39.1 |  | COc1ccc(-c2cc(O[C@H](C)[C@H]3CNC(=O)C3)c3ccnn3c2)cc1OC [(R)-4-((R)-1-((6-(3,4-dimethoxyphenyl)pyrazolo[1,5-a]pyridin-4-yl)oxy)ethyl)pyrrolidin-2-one]
22 |  | 2.1 | C[C@@H](Oc1nc(-c2cnc(C(C)(C)C)s2)cc2ncn(C3CC3)c12)[C@H]1CNC(=O)C1 [(R)-4-((R)-1-((6-(2-(tert-butyl)thiazol-5-yl)-3-cyclopropyl-3H-imidazo[4,5-c]pyridin-4-yl)oxy)ethyl)pyrrolidin-2-one]
23 |  | 3.63 | C[C@@H](Oc1nc(-c2ccc(N3CCN(C4COC4)CC3)nc2)cc2ncn(C3CC3)c12)[C@H]1CNC(=O)C1 [(R)-4-((R)-1-((3-cyclopropyl-6-(6-(4-(oxetan-3-yl)piperazin-1-yl)pyridin-3-yl)-3H-imidazo[4,5-c]pyridin-4-yl)oxy)ethyl)pyrrolidin-2-one]
24 | 1.82 |  | C[C@@H](Oc1cc(-c2ccc(N3CCOCC3)cc2)cc2ncsc12)[C@H]1CNC(=O)C1 (stereo in doubt) [(R)-4-((R)-1-((5-(4-morpholinophenyl)benzo[d]thiazol-7-yl)oxy)ethyl)pyrrolidin-2-one]
25 |  | 11.6 | C[C@@H](Oc1cc(-c2ccc(N3CCN(C4COC4)CC3)nn2)cc2ncn(C3CC3)c12)[C@H]1CNC(=O)C1 [(R)-4-((R)-1-((1-cyclopropyl-5-(6-(4-(oxetan-3-yl)piperazin-1-yl)pyridazin-3-yl)-1H-benzo[d]imidazol-7-yl)oxy)ethyl)pyrrolidin-2-one]
